According to paper PMC3355380, “Back to the Future: Lessons Learned in Modern Target-based and Whole-Cell Lead Optimization of Antimalarials” (Current Topics in Medicinal Chemistry, 2012):
≈ marks a conversion by molar mass, not a printed value. Where two headings read alike, the source gives them in different places.

Key:
[1] = test system: P. falciparum 3D7; experiment: P. falciparum 3D7 proliferation assay; type: cell-based, Plasmodium falciparum; details: for EC50: Plasmodium falciparum, 3D7
Text: (§1) We screened both our in-house compound collection (~2.3M compounds) and natural products library (12,000 compounds) using a cell based Plasmodium falciparum proliferation assay. This screen provided data on a large number of chemically diverse anti-malarial compounds. These nearly 5700 hits have been deposited into the public EBI database by GNF/Novartis. A number of these hits originated from kinase-directed libraries and many of which are pan-kinase inhibitors. De-convoluting and eliminating inherent kinase activity with many of these scaffolds while maintaining cellular potency was the first step in the hit-to-lead phase for these particular chemotypes. What follows is a summary of the chemical optimization of some kinase-like and non-kinase scaffolds which came out of the whole-cell screening effort.

[2] = test system: fifteen P. falciparum strains; experiment: panel of fifteen P. falciparum wild type and drug resistant strains; type: cell-based; details: Plasmodium falciparum, read-out: in vitro EC50s across fifteen P. falciparum strains
[3] = test system: 190 kinases; experiment: human kinase profile on 190 kinases, biochemical and cellular formats; details: biochemical and cellular assay formats
[4] = test system: P. falciparum W2; experiment: P. falciparum W2 proliferation assay; type: cell-based; details: Plasmodium falciparum, imidazolopiperazine hits, mean of two experiments
Text: as §1

[5] = test system: Huh7; experiment: cytotoxicity on Huh7 cells; details: mean of two experiments
[6] = test system: Plasmodium berghei; experiment: P. berghei murine model; type: in vivo; details: for Activity (%): average parasitemia reduction; for Survival: untreated mice 6-7 days; for parasitemia reduction: at all dosing regimens
[7] = aqueous solubility; type: physicochemical; details: aqueous medium, pH 6.8, aqueous buffer
[8] = PAMPA permeability assay; type: in vitro ADME
Text: Access to these types of in vitro assays, both within industry and academia, can greatly accelerate the drug discovery process.

[9] = test system: P. falciparum NF54; set-up: method as in PMID 20813948; details: Fig. 4; cited from earlier work
[10] = test system: chloroquine-resistant K1 P. falciparum strain; set-up: method as in PMID 20813948; details: Fig. 4; cited from earlier work
[11] = in vivo PK in mouse
[12] = test system: P. falciparum NF54; experiment: P. falciparum NF54 in vitro potency; type: cell-based; details: Plasmodium falciparum, spiroindolones, Tables 8 and 9
[13] = metabolic stability in mouse liver microsomes; type: in vitro ADME; details: for Liver Microsomes CLint, Mouse: intrinsic clearance, high clearance corresponds to low stability; for half-life: mouse, liver microsomes, read-out: Liver Microsomes t1/2 (min), Mouse
[14] = metabolic stability in human liver microsomes; type: in vitro ADME; details: for half-life: human, liver microsomes, read-out: Liver Microsomes t1/2 (min), Human; for Liver Microsomes CLint, Human: intrinsic clearance, high clearance corresponds to low stability
[15] = test system: Plasmodium berghei; set-up: method as in earlier work; details: single oral dose at 100 mg/kg; cited from earlier work
[16] = in vivo; details: mouse, po
[17] = biological target: WT-PfDHFR (wild type PfDHFR); set-up: method as in PMID 20350951; details: cited from earlier work
[18] = biological target: QM-PfDHFR (quadruple mutant PfDHFR); set-up: method as in PMID 20350951; details: cited from earlier work
[19] = imidazolopiperazine hits, mean of two experiments, read-out: P. falciparum 3D7 EC50
[20] = 1 x 30 mg/kg, 7% Tween 80/3% ethanol (20: 75% PEG300/25%D5W)

## CN1CCN(c2nc(Nc3ccc(OC(F)(F)F)cc3)cc(Nc3nccn3-c3cccc(C(F)(F)F)c3)n2)CC1 [Compound 17]
[1]; 17 versus 16
  improvement in potency over the hit compound: greater than 10 fold
[1]; imidazolopyrimidines, Fig. 2, read-out: 3D7 EC50
  EC50: 34 nM
[2]
  EC50: < 140 nM
[3]
  human kinase profile on 190 kinases: clean human kinase profile

## NC(Cc1ccccc1)C(=O)N1CCn2c(nc(-c3ccccc3)c2Nc2ccc3c(c2)OCO3)C1 (stereo not shown) [Compound 18b]
[1]; [19]
  EC50: 235 nM
[4]
  EC50: 271 nM
[5]
  Cytotoxicity (µM) Huh7: > 10 µM

## CC(C)CC(N)C(=O)N1CCn2c(nc(-c3ccccc3)c2Nc2ccc3c(c2)OCO3)C1 (stereo not shown) [Compound 18c]
[1]; [19]
  EC50: 116 nM
[4]
  EC50: 119 nM
[5]
  Cytotoxicity (µM) Huh7: > 10 µM

## CC(C)(N)C(=O)N1CCn2c(nc(-c3ccc(F)cc3)c2Nc2ccc(F)cc2)C1 [Compound 19]
[6]; [20]
  Activity (%): 99.3%
[6]; 1 x 30 mg/kg
  Survival: 7.7 days
[6]; 1 x 100 mg/kg
  Activity (%): 99.6%
  Survival: 13.3 days
[6]; 3 x 30 mg/kg
  Activity (%): 99.9%
  Survival: 14.0 days
[6]
  parasitemia reduction: more than 99%

## CC(C)(N)C(=O)N1CCn2c(nc(-c3ccc(F)cc3)c2Nc2ccc(F)c(Cl)c2)C1 [Compound 20]
[6]; [20]
  Activity (%): 99.4%
[6]; 1 x 30 mg/kg
  Survival: 7.7 days
[6]; 1 x 100 mg/kg
  Activity (%): 99.4%
  Survival: 17.0 days
[6]; 3 x 30 mg/kg
  Activity (%): 99.8%
  Survival: 17.7 days
[6]
  parasitemia reduction: more than 99%

## CC1CCc2c([nH]c3ccccc23)C2(N1)C(=O)Nc1ccc(Br)cc12 (stereo not shown) [Compound 21]
[6]; single oral dose of 100 mg/kg
  mouse survival: slight prolongation in mouse survival over control
  reduction in parasitemia: 96%
[7]
  solubility: 75 µM (≈ 29.7 µg/mL)
[8]
  permeability in a PAMPA assay: 99%
[9]
  EC50: 90 nM
[10]
  EC50: 80 nM
[11]; in vivo, po, 25 mg/kg
  Cmax: 1400 nM
  bioavailability: 59%
[11]; single 25 mg/kg oral dose
  oral T1/2: four

## C[C@H]1CCc2c([nH]c3ccccc23)[C@@]2(N1)C(=O)Nc1ccc(Br)cc12 [Compound 22]
[9]
  EC50: 10 nM
[10]
  EC50: 16 nM

## C[C@@H]1CCc2c([nH]c3ccccc23)[C@]2(N1)C(=O)Nc1ccc(Br)cc12 [Compound 23]
[9]
  EC50: > 5000 nM
[10]
  EC50: > 3000 nM

## C[C@H]1Cc2c([nH]c3ccc(F)cc23)[C@@]2(N1)C(=O)Nc1ccc(Cl)cc12 [Compound 27]
[12]
  EC50: 3.4 nM
[13]
  Liver Microsomes CLint, Mouse: High
  half-life: 4.2 min
[14]
  half-life: 10 min
  Liver Microsomes CLint, Human: Med

## C[C@H]1Cc2c([nH]c3cc(F)ccc23)[C@@]2(N1)C(=O)Nc1ccc(Cl)cc12 [Compound 28]
[12]
  EC50: 3.5 nM
[13]
  Liver Microsomes CLint, Mouse: Low
  half-life: 53 min
[14]
  half-life: 53.3 min
  Liver Microsomes CLint, Human: Low

## C[C@H]1Cc2c([nH]c3cc(F)c(F)cc23)[C@@]2(N1)C(=O)Nc1ccc(Cl)cc12 [Compound 29]
[12]
  EC50: 0.2 nM
[13]
  Liver Microsomes CLint, Mouse: Low
  half-life: 49.1 min
[14]
  half-life: 56.4 min
  Liver Microsomes CLint, Human: Low

## C[C@H]1Cc2c([nH]c3cc(Cl)c(F)cc23)[C@@]2(N1)C(=O)Nc1ccc(Cl)cc12 [Compound 30]
[12]
  EC50: 0.9 nM
[13]
  Liver Microsomes CLint, Mouse: Low
  half-life: 49 min
[14]
  half-life: 76 min
  Liver Microsomes CLint, Human: Low
[15]
  clearance of P. berghei infection: completely cleared a P. berghei infection in all treated mice
[16]
  bioavailability: 100%
[11]; in vivo, po
  half-life: 600 min

## CC1(C)N=C(N)N=C(N)N1c1ccc(Cl)cc1 [Cycloguanil]
[17]
  Ki: 1.51 ± 0.1 nM
[18]
  Ki: 454 ± 38 nM

## CCc1nc(N)nc(N)c1-c1ccc(Cl)cc1 [Pyrimethamine]
[17]
  Ki: 0.59 ± 0.05 nM
[18]
  Ki: 385 ± 163 nM
